Reference: PMC8875555, “Discovery of Kinase and Carbonic Anhydrase Dual Inhibitors by Machine Learning Classification and Experiments” (Pharmaceuticals, 2022)
Where “and” joins values, the source holds several entries; their conditions need not be identical. Equal values may be shown once.

Tests used:
CA I [1] = target: T1, CA I (Homo sapiens, UniProt P00915); experiment: Differential scanning fluorimetry (DSF); assay type: binding; details: 200 µM inhibitor; for CA I ΔTm: shift from apo CA I
Method: (§1) The biophysical experiments involved the binding of small molecules to CA I or CA II, which were quantified using the Tm of DSF. The profile was generated by CFX-connect […] (BioRad, Hercules, CA, USA). The solution contained 5× SYPRO® Orange and 0.5 µM recombinant human CA I or CA II in the absence or presence of 200 µM inhibitor. […] The patterns were nonlinearly fitted to the Boltzmann equation to calculate Tm. […] Nonlinear curve fittings for Ki in enzyme assay and Tm in DSF were performed using MATLAB (MathWorks, Natick, MA, USA).

CA II [2] = target: T2, CA II (Homo sapiens, UniProt P00918); experiment: Differential scanning fluorimetry (DSF); assay type: binding; details: 200 µM inhibitor; for CA II ΔTm: shift from apo CA II
Method: as §1

CDK2 = test system: CDK2; set-up: method as in PMID 15974571; details: cited from earlier work
CA IX = CA IX (Homo sapiens, UniProt Q16790); experiment: CA enzyme inhibition with 4-nitrophenyl acetate as substrate; assay type: biochemical; details: converted from IC50 by Cheng-Prusoff; 5 nM enzyme, 1 mM substrate, 0.01% Triton X-100, 37 °C
Method: (§2) All the reagents used for the biochemical experiments for enzyme inhibitions were bought from Cayman (Ann Harbor, MI, USA), Sigma–Aldrich (St. Louis, MO, USA), Sino Biological (Beijing, China), or Tokyo Chemical Industry (Tokyo, Japan). Inhibitory activities of small molecules on CAs were measured using 4-nitrophenyl acetate as a substrate. […] The changes were measured at 96-well microplates using Epoch2 from BioTek (Winooski, VT, USA). The slope in a time-dependent measurement was calculated by linear regression and interpreted as the quantified activity. Each 200 μL reaction solution comprised 5 nM enzyme and 1 mM substrate buffered using phosphate-buffered saline containing 5% dimethyl sulfoxide and 0.01% (w/v) Triton X-100 under the absence or the presence of inhibitor. […] The substrate-only solution was used as a control to consider autohydrolysis of the substrate. The value of IC50 was converted into Ki using the Cheng–Prusoff equation [66].

CA I [3] = target: T1, CA I; experiment: as above; assay type: biochemical; details: converted from IC50 by Cheng-Prusoff; 5 nM enzyme, 1 mM substrate, 0.01% Triton X-100, 37 °C
Method: as §2

CA II [4] = target: T2, CA II; experiment: as above; assay type: biochemical; details: converted from IC50 by Cheng-Prusoff; 5 nM enzyme, 1 mM substrate, 0.01% Triton X-100, 37 °C
Method: as §2

CA XII = CA XII (Homo sapiens, UniProt O43570); experiment: as above; assay type: biochemical
Method: as §2

SYK = test system: SYK; set-up: method as in PMID 12941345; details: cited from earlier work
MST2 = test system: MST2; set-up: method as in PMID 27535619; details: cited from earlier work
MST1 = test system: MST1; set-up: method as in PMID 27535619; details: cited from earlier work

T1 sequence (P00915 whole entry): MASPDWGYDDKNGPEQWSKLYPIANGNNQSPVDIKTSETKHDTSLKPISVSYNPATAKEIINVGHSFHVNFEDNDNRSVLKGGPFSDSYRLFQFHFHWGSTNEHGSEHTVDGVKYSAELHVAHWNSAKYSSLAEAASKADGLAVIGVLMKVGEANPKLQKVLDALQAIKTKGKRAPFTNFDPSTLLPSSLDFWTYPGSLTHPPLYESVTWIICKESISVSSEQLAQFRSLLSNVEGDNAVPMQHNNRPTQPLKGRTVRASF
CA XII, sequence (O43570 25-354): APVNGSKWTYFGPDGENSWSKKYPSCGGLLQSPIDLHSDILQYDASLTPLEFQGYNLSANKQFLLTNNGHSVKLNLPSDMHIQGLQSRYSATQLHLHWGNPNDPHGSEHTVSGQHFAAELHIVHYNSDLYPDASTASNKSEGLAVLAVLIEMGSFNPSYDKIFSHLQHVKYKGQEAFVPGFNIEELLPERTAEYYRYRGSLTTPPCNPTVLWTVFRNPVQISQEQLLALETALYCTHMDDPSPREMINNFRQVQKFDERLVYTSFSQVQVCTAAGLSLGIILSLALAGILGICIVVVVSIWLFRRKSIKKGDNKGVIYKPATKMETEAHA

| CA I ΔTm (CA I [1]) [degrees] | CA II ΔTm (CA II [2]) [degrees] | Ki (CA IX) | Ki (CA I [3]) | Ki (CA II [4]) | Ki (CA XII) [nM] | CA I Tm (CA I [1]; 0.5 µM CA I, enzyme alone 56.2 ± 0.1) [°C] | CA II Tm (CA II [2]; 0.5 µM CA II, enzyme alone 52.6 ± 0.2) [°C] | weaker in inhibiting CA XII (CA XII; compared with CA I, CA II and CA IX) | Structure (SMILES) | IC50 (CDK2) [nM] | IC50 (SYK) [nM] | IC50 (MST2) [nM] | IC50 (MST1) [nM] |
| --- | --- | --- | --- | --- | --- | --- | --- | --- | --- | --- | --- | --- | --- |
| […] | […] | 220 ± 32 nM | 207 ± 66 nM | […] | […] | – | – | – | Nc1nc(Nc2ccc(S(N)(=O)=O)cc2)nn1C(=O)c1c(F)cccc1F [Compound 5932, JNJ-7706621] | […] | – | – | – |
| 0.1 | 0.2 | 2700 ± 300 nM | 60000 ± 9000 nM | 16000 ± 5000 nM | 13000 ± 4000 | – | – | – | Cn1cc(/C=C2\C(=O)Nc3ccc(S(N)(=O)=O)cc32)c2ccccc21 [Compound 6046] | – | […] | – | – |
| – | 3.2 | 100 ± 28 nM | 258 ± 58 nM | 149 ± 21 nM | 254 ± 40 | – | – | – | Nc1nc(Nc2ccc(S(N)(=O)=O)cc2)nn1C(=S)Nc1c(F)cccc1F [Compound 5946, CDK1/2 inhibitor III] | 0.5 | – | – | – |
| 5.7 | 7.3 | ~30 nM and 31 nM | ~30 nM and 32 nM | ~30 nM and 24 nM | 1000 | 61.9±0.2 | 59.9±0.2 | approximately 30 fold | CN1C(=O)c2sccc2N(C)c2nc(Nc3ccc(S(N)(=O)=O)cc3)ncc21 [XMU-MP-1] | – | – | 31 | 71 |
| – | – | 1700 ± 500 nM | 67 ± 10 nM | 242 ± 32 nM | 800 ± 300 | – | – | – | Cc1ccc(Nc2nccc(N(C)c3ccc4c(C)n(C)nc4c3)n2)cc1S(N)(=O)=O [Compound 5698, pazopanib] | – | – | – | – |
